US20260068882A1, “ARTHROPOD CONTROLLING COMPOSITION” (Firmenich SA, priority 2019, published 2026)
Where two headings read alike, the source gives them in different places.

Assays:
Aedes aegypti = assay: In vitro K&D (Klun & Debboun) assay, mosquitoes biting through treated cloth over membrane-blood reservoir; format: in vivo
Experimental: Controlling efficacy was tested against the yellow fever mosquito, A. aegypti Rockefeller strain.
Observations of controlling efficacy were made on host-seeking females of uniform age, 5 to 10 days post-eclosion from pupae. Tested hungry females had access to 10% sugar solution but were not blood-fed.
The controlling efficacy in vitro was measured using the Klun & Debboun (K&D) assay test module [Klun J A, Kramer M, Debboun M. A new in vitro bioassay system for discovery of novel human-use mosquito controlling compounds. J Am Mosq Control Assoc. 2005; 21:64-70], which is an adaptation of the K&D module [Klun J A, Debboun M. A new module for quantitative evaluation of controlling efficacy using human subjects. J Med Entomol. 2000; 37:177-81.], initially developed and used for quantitative measurement of the efficacy of mosquito controlling compounds on human subjects.
In the in vitro assay the module is coupled with a membrane-blood reservoir, consisting of a unit with six wells that are filled with 7 mL defibrinated pig blood maintained at a constant temperature of 38° C. and covered with a bovine collagen film (Devro plc, Edicol-MX400 CLR 100M REEL) as the membrane. Over the membrane a piece of cotton cloth (Baptist Roh, 100% cotton, weight: 69.0 g/m^2, thread density: warp and woof 26.5×26.5 thread/cm, Modessa Basel) was placed after being treated with 80 μL of the tested stimuli.
The K&D unit, containing five mosquitoes in each cell was finally placed on top of the treated cloth. Then the numbers of mosquitoes biting in each cell within a 3-min exposure were recorded. This procedure was repeated until 6 replicate exposures and observations (i.e. 30 mosquitoes) were made.

Ixodes ricinus = assay: In vitro Warm Plate Assay for ticks; format: in vivo
In short: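 Repellency against last-stage Ixodes ricinus nymphs in an in vitro warm plate assay, compounds diluted in ethanol at 0.4 and 10 mg/mL, 0.0016% to 1%, or 20% (w/w). Ticks walking down or falling from the treated plate scored as affected, walking up as unaffected; groups of 12 ticks, n=2-5.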

## Cc1ccc2c(c1)CC(C)(CO)C2 (stereo not shown) [ingredient #2, (2,5-dimethyl-2,3-dihydro-1H-inden-2yl)methanol]
Aedes aegypti; 0.0008% in ethanol
  % repulsion: 21.5%
Aedes aegypti; 0.004% in ethanol
  % repulsion: 25.3%
Aedes aegypti; 0.02% in ethanol
  % repulsion: 33.8%
Aedes aegypti; 0.1% in ethanol
  % repulsion: 57.1%
Aedes aegypti; 0.5% in ethanol
  % repulsion: 84.6%
Aedes aegypti; 2.5% in ethanol
  % repulsion: 92.3%
Aedes aegypti; on its own, in ethanol
  concentration from which a significant repellent effect is shown: ≥ 0.1%
Ixodes ricinus; 0.00032% (Table 9)
  percentage of ticks being affected: 0%
Ixodes ricinus; 0.4 mg/mL in ethanol (Table 5)
  MEAN % affected (ticks): 21%
Ixodes ricinus; 0.00071% (Table 9)
  percentage of ticks being affected: 15%
Ixodes ricinus; 0.0016% (Table 9)
  percentage of ticks being affected: 17%
Ixodes ricinus; 0.00357% (Table 9)
  percentage of ticks being affected: 0%
Ixodes ricinus; 0.0053% (Table 9)
  percentage of ticks being affected: 15%
Ixodes ricinus; 0.008% (Table 9)
  percentage of ticks being affected: 0%
Ixodes ricinus; 10 mg/mL in ethanol (Table 5)
  MEAN % affected (ticks): 92%
Ixodes ricinus; 0.0119% (Table 9)
  percentage of ticks being affected: 8%
Ixodes ricinus; 0.0178% (Table 9)
  percentage of ticks being affected: 17%
Ixodes ricinus; 0.0267% (Table 9)
  percentage of ticks being affected: 38%
Ixodes ricinus; 0.04% (Table 9)
  percentage of ticks being affected: 0%
Ixodes ricinus; 0.0598% (Table 9)
  percentage of ticks being affected: 31%
Ixodes ricinus; 0.089% (Table 9)
  percentage of ticks being affected: 29%
Ixodes ricinus; 0.2% (Table 9)
  percentage of ticks being affected: 85%
Ixodes ricinus; 0.447% (Table 9)
  percentage of ticks being affected: 100%
Ixodes ricinus; 1%
  ticks affected / not affected over 12 (in words): only one tick over 12 was not affected
Ixodes ricinus; 1% (Table 9)
  percentage of ticks being affected: 71%
Ixodes ricinus; 20% (w/w) in ethanol, 0.25 h post-application
  percentage of ticks affected overtime: 100%
Ixodes ricinus; 20% (w/w) in ethanol, 0.5 h post-application
  percentage of ticks affected overtime: 83%
Ixodes ricinus; 20% (w/w) in ethanol, 1 h post-application
  percentage of ticks affected overtime: 100%
Ixodes ricinus; 20% (w/w) in ethanol, 2 h post-application
  percentage of ticks affected overtime: 100%
Ixodes ricinus; 20% (w/w) in ethanol, 4 h post-application
  percentage of ticks affected overtime: 0%
Ixodes ricinus; 20% (w/w) in ethanol, 6 h post-application
  percentage of ticks affected overtime: 8%
Ixodes ricinus; 20% (w/w) in ethanol, Table 14
  ticks' repellency overtime (in words): better ticks' repellency than the known repellent
Ixodes ricinus; Ixodes ricinus, 0.0016% (Table 11), read-out: percentage of ticks affected on the Warm Plate
  pest or weed control at 0.0016 %: 8%
Ixodes ricinus; Ixodes ricinus, 0.0016% in ethanol (Table 12), read-out: percentage of ticks affected on the Warm Plate
  pest or weed control at 0.0016 %: 17%
Ixodes ricinus; Ixodes ricinus, 0.0053% in ethanol (Table 12), read-out: percentage of ticks affected on the Warm Plate
  pest or weed control at 0.0053 %: 15%
Ixodes ricinus; Ixodes ricinus, 0.008% in ethanol (Table 12), read-out: percentage of ticks affected on the Warm Plate
  pest or weed control at 0.008 %: 0%
Ixodes ricinus; Ixodes ricinus, 0.0119% in ethanol (Table 12), read-out: percentage of ticks affected on the Warm Plate
  pest or weed control at 0.0119 %: 8%
Ixodes ricinus; Ixodes ricinus, 0.0178% in ethanol (Table 12), read-out: percentage of ticks affected on the Warm Plate
  pest or weed control at 0.0178 %: 17%
Ixodes ricinus; Ixodes ricinus, 0.0267% in ethanol (Table 12), read-out: percentage of ticks affected on the Warm Plate
  pest or weed control at 0.0267 %: 38%
Ixodes ricinus; Ixodes ricinus, 0.04% (Table 11), read-out: percentage of ticks affected on the Warm Plate
  pest or weed control at 0.04 %: 0%
Ixodes ricinus; Ixodes ricinus, 0.04% in ethanol (Table 12), read-out: percentage of ticks affected on the Warm Plate
  pest or weed control at 0.04 %: 0%
Ixodes ricinus; Ixodes ricinus, 0.0598% in ethanol (Table 12), read-out: percentage of ticks affected on the Warm Plate
  pest or weed control at 0.0598 %: 31%
Ixodes ricinus; Ixodes ricinus, 0.089% in ethanol (Table 12), read-out: percentage of ticks affected on the Warm Plate
  pest or weed control at 0.089 %: 29%
Ixodes ricinus; Ixodes ricinus, 0.2% in ethanol (Table 12), read-out: percentage of ticks affected on the Warm Plate
  pest or weed control at 0.2 %: 85%
Ixodes ricinus; Ixodes ricinus, 0.447% in ethanol (Table 12), read-out: percentage of ticks affected on the Warm Plate
  pest or weed control at 0.447 %: 100%
Ixodes ricinus; Ixodes ricinus, 1% (Table 11), read-out: percentage of ticks affected on the Warm Plate
  pest or weed control at 1 %: 92%
Ixodes ricinus; Ixodes ricinus, 1% in ethanol (Table 12), read-out: percentage of ticks affected on the Warm Plate
  pest or weed control at 1 %: 71%
Ixodes ricinus; Table 9
  threshold concentration to be efficient to repel the ticks: above 0.2%
Ixodes ricinus; dose of 0.89%
  ticks affected: 29%
